Source: PubChem BioAssay (NCI)
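All cell lines were grown in 96-well plates and treated with compound for 48 hours. TGI: concentration producing complete growth inhibition.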

Legend:
Experiment in all cases: DTP human tumour cell line panel, 48 h
786-0 renal = tested on: 786-0 renal
A498 renal = tested on: A498 renal
A549 NSCLC = tested on: A549 NSCLC
ACHN renal = tested on: ACHN renal
BT-549 breast = tested on: BT-549 breast
CAKI-1 renal = tested on: CAKI-1 renal
CCRF-CEM leukemia = tested on: CCRF-CEM leukemia
COLO 205 colon = tested on: COLO 205 colon
DU-145 prostate = tested on: DU-145 prostate
EKVX NSCLC = tested on: EKVX NSCLC
HCC-2998 colon = tested on: HCC-2998 colon
HCT-116 colon = tested on: HCT-116 colon
HCT-15 colon = tested on: HCT-15 colon
HL-60(TB) leukemia = tested on: HL-60(TB) leukemia
HOP-62 NSCLC = tested on: HOP-62 NSCLC
HOP-92 NSCLC = tested on: HOP-92 NSCLC
HS 578T breast = tested on: HS 578T breast
HT29 colon = tested on: HT29 colon
IGROV1 ovarian = tested on: IGROV1 ovarian
K-562 leukemia = tested on: K-562 leukemia
KM12 colon = tested on: KM12 colon
LOX IMVI melanoma = tested on: LOX IMVI melanoma
M14 melanoma = tested on: M14 melanoma
MALME-3M melanoma = tested on: MALME-3M melanoma
MCF7 breast = tested on: MCF7 breast
MDA-MB-231 breast = tested on: MDA-MB-231 breast
MDA-MB-435 = tested on: MDA-MB-435
MDA-N = tested on: MDA-N
MOLT-4 leukemia = tested on: MOLT-4 leukemia
NCI-H226 lung = tested on: NCI-H226 lung
NCI-H23 lung = tested on: NCI-H23 lung
NCI-H460 lung = tested on: NCI-H460 lung
NCI-H522 lung = tested on: NCI-H522 lung
NCI/ADR-RES ovarian = tested on: NCI/ADR-RES ovarian
OVCAR-3 ovarian = tested on: OVCAR-3 ovarian
OVCAR-5 ovarian = tested on: OVCAR-5 ovarian
OVCAR-8 ovarian = tested on: OVCAR-8 ovarian
PC-3 prostate = tested on: PC-3 prostate
RPMI-8226 leukemia = tested on: RPMI-8226 leukemia
RXF 393 renal = tested on: RXF 393 renal
SF-268 CNS = tested on: SF-268 CNS
SF-295 CNS = tested on: SF-295 CNS
SF-539 CNS = tested on: SF-539 CNS
SK-MEL-2 melanoma = tested on: SK-MEL-2 melanoma
SK-MEL-28 melanoma = tested on: SK-MEL-28 melanoma
SK-MEL-5 melanoma = tested on: SK-MEL-5 melanoma
SK-OV-3 ovarian = tested on: SK-OV-3 ovarian
SN12C renal = tested on: SN12C renal
SNB-19 CNS = tested on: SNB-19 CNS
SNB-75 CNS = tested on: SNB-75 CNS
SW-620 colon = tested on: SW-620 colon
T-47D breast = tested on: T-47D breast
TK-10 renal = tested on: TK-10 renal
U251 CNS = tested on: U251 CNS
UACC-257 melanoma = tested on: UACC-257 melanoma
UACC-62 melanoma = tested on: UACC-62 melanoma
UO-31 renal = tested on: UO-31 renal
OVCAR-4 ovarian = tested on: OVCAR-4 ovarian
SR leukemia = tested on: SR leukemia

Measured: TGI

COC(=O)[C@@H]1[C@H]2CC[C@]3(C)[C@@H](OC(C)=O)CC[C@H]3[C@@H]2CC[C@H]1C(C)=O
not listed: OVCAR-4 ovarian | SR leukemia
> 100 µM: all other assays above

O=C1NC(N2CCCCC2)=N/C1=C\c1ccco1
not listed: A498 renal | K-562 leukemia | NCI-H460 lung | SNB-75 CNS
> 100 µM: all other assays above
